Assay [1] deals with T1, system Xc^− (Homo sapiens, UniProt Q9UPY5).
T1 sequence (Q9UPY5 1-501): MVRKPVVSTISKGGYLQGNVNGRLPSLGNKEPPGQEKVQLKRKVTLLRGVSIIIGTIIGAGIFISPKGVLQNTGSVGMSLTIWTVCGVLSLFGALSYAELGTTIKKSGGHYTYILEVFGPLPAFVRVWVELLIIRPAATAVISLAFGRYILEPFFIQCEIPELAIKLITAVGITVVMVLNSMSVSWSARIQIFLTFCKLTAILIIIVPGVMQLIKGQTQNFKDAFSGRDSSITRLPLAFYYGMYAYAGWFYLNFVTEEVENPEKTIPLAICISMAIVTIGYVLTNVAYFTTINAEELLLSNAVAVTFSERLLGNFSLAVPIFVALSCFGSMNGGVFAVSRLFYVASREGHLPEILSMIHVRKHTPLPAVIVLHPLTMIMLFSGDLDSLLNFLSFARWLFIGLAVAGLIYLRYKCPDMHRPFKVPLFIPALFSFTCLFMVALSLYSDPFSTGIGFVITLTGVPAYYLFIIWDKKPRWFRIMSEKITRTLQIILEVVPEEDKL
T1 sequence (P08195 1-529 partner): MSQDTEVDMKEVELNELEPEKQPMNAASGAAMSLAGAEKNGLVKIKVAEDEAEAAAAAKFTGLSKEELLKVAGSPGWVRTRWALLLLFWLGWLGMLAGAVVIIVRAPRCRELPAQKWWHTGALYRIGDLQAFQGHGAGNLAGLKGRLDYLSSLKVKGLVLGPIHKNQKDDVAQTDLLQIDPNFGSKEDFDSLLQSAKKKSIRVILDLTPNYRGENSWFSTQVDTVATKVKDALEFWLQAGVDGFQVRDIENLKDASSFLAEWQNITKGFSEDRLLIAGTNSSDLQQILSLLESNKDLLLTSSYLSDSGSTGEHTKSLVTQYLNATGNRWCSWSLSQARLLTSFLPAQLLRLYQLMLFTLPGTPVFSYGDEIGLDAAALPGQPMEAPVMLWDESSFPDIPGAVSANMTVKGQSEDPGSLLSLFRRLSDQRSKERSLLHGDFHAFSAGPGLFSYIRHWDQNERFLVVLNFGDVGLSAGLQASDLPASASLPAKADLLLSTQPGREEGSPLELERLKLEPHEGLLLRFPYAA
The assay can be described thus: Cystine-induced glutamate release assay. In kind it is cell-based. Details: endogenous in cells; host or cells: H4 cells. The note with it: H4 cells, sodium-free HEPES buffer, 50 μM L-Cystine, 2 hours, Amplex Red glutamate readout; read-out: pIC50 Cystine-induced glutamate release assay (converted). In outline:
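H4 cells in sodium-free HEPES buffer (pH 7.4), 2 days after plating; glutamate release induced with 50 μM L-cystine plus compound (1% DMSO), 2 h at 37 °C. Supernatant glutamate measured by Amplex Red fluorescence; IC50/pIC50 derived between 1% DMSO and 50 μM erastin controls.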

The target in assay [2] is T1, system Xc^−. The assay can be described thus: [^14C]L-Cystine uptake assay. Details: endogenous in cells; host or cells: H4 cells. The note with it: H4 cells, sodium-free HEPES buffer, 0.5 μM L-[14C]Cystine and 4.5 μM L-Cystine, 1 hour at 37° C.; read-out: pIC50 [^14C] L-Cystine uptake assay (converted). In kind it is cell-based. Summed up: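 H4 cells at 5×10^4 cells/well in sodium-free HEPES buffer were preincubated 15 min with compounds (1% DMSO). Uptake of 0.5 μM [14C]L-cystine plus 4.5 μM unlabelled L-cystine ran 1 hour at 37° C on scintillating plates. IC50 was set between 1% DMSO and 50 μM Erastin controls and expressed as pIC50.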

The structures appear in SMILES notation.

On to `Cc1cc2c(c(=O)o1)-c1ccccc1C(C)C(=O)N2CC(=O)Nc1ccc(C(F)F)cc1` (single isomer, unassigned) [#359, N-[4-(difluoromethyl)phenyl]-2-[3,7-dimethyl-1,6-dioxo-7H-pyrano[4,3-d][3]benzazepin-5-yl]acetamide], for which the IC50 at system Xc^− [1] and on system Xc^− [2] was 15.8 to 39.8 nM throughout.

As for `Cc1cc2c(c(=O)o1)-c1cccnc1C(C)C(=O)N2CC(=O)Nc1ccc(C(F)F)cc1` (single isomer, unassigned) [#360, N-[4-(difluoromethyl)phenyl]-2-[5,10-dimethyl-3,9-dioxo-4-oxa-8,12-diazatricyclo[9.4.0.0^2,7]pentadeca-1(15),2(7),5,11,13-pentaen-8-yl]acetamide], the IC50 at system Xc^− [1] is 15.8 to 39.8 nM; at system Xc^− [2], 39.8 to 100 nM.

Turning to `CC1C(=O)N(CC(=O)Nc2ccc(Cl)c(F)c2)c2ccn(C)c(=O)c2-c2ccc(F)cc21` (single isomer, unassigned) [#364, N-(4-chloro-3-fluoro-phenyl)-2-[-9-fluoro-2,7-dimethyl-1,6-dioxo-7H-pyrido[4,3-d][3]benzazepin-5-yl]acetamide], the IC50 was 15.8 to 39.8 nM on system Xc^− [1] and below 15.8 nM on system Xc^− [2].

Regarding `CC1C(=O)N(CC(=O)Nc2ccc(C(F)F)cc2)c2cc(C3(F)CC3)oc(=O)c2-c2cccnc21` (single isomer, unassigned) [#365, N-[4-(difluoromethyl)phenyl]-2-[5-(1-fluorocyclopropyl)-10-methyl-3,9-dioxo-4-oxa-8,12-diazatricyclo[9.4.0.0^2,7]pentadeca-1(15),2(7),5,11,13-pentaen-8-yl]acetamide], the results for the IC50 on system Xc^− [1] and on system Xc^− [2] were below 15.8 nM and 15.8 to 39.8 nM, respectively.

In the case of `Cc1cc2c(c(=O)n1C)-c1cncnc1C(C)C(=O)N2CC(=O)Nc1ccc(C(F)F)cc1` (single isomer, unassigned) [#367, N-[4-(difluoromethyl)phenyl]-2-[8,13,14-trimethyl-9,15-dioxo-4,6,10,14-tetrazatricyclo[9.4.0.0^2,7]pentadeca-1(11),2(7),3,5,12-pentaen-10-yl]acetamide], the IC50 on system Xc^− [1] and on system Xc^− [2] was 15.8 to 39.8 nM each time.

With `Cc1c2c(cn(C)c1=O)N(CC(=O)Nc1ccc(C(F)F)cc1)C(=O)C(C)c1ccccc1-2` (single isomer, unassigned) [#368, N-[4-(difluoromethyl)phenyl]-2-[1,3,7-trimethyl-2,6-dioxo-7H-pyrido[4,3-a][3]benzazepin-5-yl]acetamide], the IC50 on system Xc^− [1] and at system Xc^− [2] was below 15.8 nM each time.

`Cc1cc2c(cn1)-c1cncnc1C(C)C(=O)N2CC(=O)Nc1ccc(Cl)c(F)c1` (single isomer, unassigned) [#369, N-(4-chloro-3-fluoro-phenyl)-2-[8,13-dimethyl-9-oxo-4,6,10,14-tetrazatricyclo[9.4.0.0^2,7]pentadeca-1(15),2,4,6,11,13-hexaen-10-yl]acetamide]: the IC50 on system Xc^− [1] and at system Xc^− [2] was 15.8 to 39.8 nM each time.

Consider `COc1cc(F)c2c(c1)N(CC(=O)Nc1ccc(Cl)c(F)c1)C(=O)C(C)c1ncncc1-2` (single isomer, unassigned) [#371, N-(4-chloro-3-fluoro-phenyl)-2-[11-fluoro-9-methoxy-5-methyl-6-oxo-5H-pyrimido[4,5-d][1]benzazepin-7-yl]acetamide], for which the IC50 on system Xc^− [1] and at system Xc^− [2] was below 15.8 nM in each case.

Regarding `CC1C(=O)N(CC(=O)Nc2ccc(Cl)c(F)c2)c2cc(F)cc(F)c2-c2cncnc21` (single isomer, unassigned) [#372, N-(4-chloro-3-fluoro-phenyl)-2-[9,11-difluoro-5-methyl-6-oxo-5H-pyrimido[4,5-d][1]benzazepin-7-yl]acetamide], the values for the IC50 at system Xc^− [1] and at system Xc^− [2] were below 15.8 nM and 15.8 to 39.8 nM, respectively.

As to `Cc1ncc2c(n1)C(C)C(=O)N(CC(=O)Nc1ccc(Cl)c(F)c1)c1cc(Cl)cc(F)c1-2` (single isomer, unassigned) [#373, 2-[9-chloro-11-fluoro-3,5-dimethyl-6-oxo-5H-pyrimido[4,5-d][1]benzazepin-7-yl]-N-(4-chloro-3-fluoro-phenyl)acetamide], the IC50 at system Xc^− [1] and at system Xc^− [2] was 15.8 to 39.8 nM throughout.

The record behind these values is US20260217708A1, “FUSED BENZAZEPINE DERIVATIVES FOR USE IN THE TREATMENT OF CANCER AND EPILEPSY” (UCB BIOPHARMA SRL, priority 2023, published 2026).
